For test [1], the system named is HeLa (cervix epithelioid carcinoma). As to the kind of experiment: Antiproliferative activity against HeLa (XTT colorimetric method). The test is classed as cell-based. The settings on record: Homo sapiens, 72 h treatment. As to the method: (§1) The in vitro antiproliferative activity of MDS at 1 µM after 72 h treatments was evaluated by a colorimetric method against the human tumor cell lines HeLa (cervix epithelioid carcinoma) and MCF7 (breast adenocarcinoma). Compounds showing more than 40% inhibition at 1 µM in at least three independent assays were evaluated in a range of concentrations between 0.1 nM and 10 µM for the determination of half-maximal inhibitory concentrations (IC50) (Table 1). Paclitaxel, CA-4, and ABT-751 were used as references.
(§2) MCF7 (human breast carcinoma), SKOV-3 (human ovarian carcinoma), OVCAR-3 (human ovarian carcinoma), OVCAR-8 (human ovarian carcinoma), and HeLa (human cervical carcinoma) cell lines were cultured in Dulbecco’s Modified Eagle’s Medium (DMEM) (Gibco, Thermo Fischer Scientific) containing 10% (v/v) heat-inactivated fetal bovine serum (HIFBS) (Lonza-Cambrex, Karlskoga, Sweden), 2 mM L-glutamine (Lonza-Cambrex, Karlskoga, Sweden), 100 μg/mL streptomycin, and 100 IU/mL penicillin (Lonza-Cambrex) at 37 °C in humidified 95% air and 5% CO2. HT-29 (human colon carcinoma), IGROV-1 (human ovarian carcinoma), and A2780 (human ovarian carcinoma) cell lines were cultured in RPMI 1640 medium (Gibco, Thermo Fischer Scientific) supplemented with 10% HIFBS, 100 μg/mL streptomycin, and 100 IU/mL penicillin at 37 °C in humidified 95% air and 5% CO2 atmosphere. The presence of mycoplasma was routinely checked with MycoAlert kit (Lonza-Cambrex) and only mycoplasma-free cells were used in the experiments. Ovarian tumor cell lines were originally acquired from Dr Atanasio Pandiella from Centro de Investigación del Cáncer (CIC), Salamanca, Spain. HeLa, HT-29 and MCF7 tumor cell lines were provided by Dr Faustino Mollinedo from Centro de Investigaciones Biológicas Margarita Salas, Madrid, Spain.
(§3) MCF7, HeLa, and HT-29 cell proliferation, when treated with the corresponding compounds, were determined using the XTT (sodium 3’-[1(phenylaminocarbonyl)-3,4-tetrazolium]-bis(4-methoxy-6-nitro)-benzenesulfonic acid hydrate) cell proliferation kit (Roche Molecular Biochemicals, Mannheim, Germany). A freshly prepared mixture of XTT labeling reagent with 0.02% (v/v) PMS (N-methyl-dibenzopyrazine methyl sulfate) electron coupling reagent was added to cells (50 µL/well in 96-well plates, total volume of 160 µL/well). Cells were incubated under standard culture conditions for 4 h (MCF7 and HeLa) or 6 h (HT-29). The absorbance of the formazan product generated was measured at 450 nm using a multi-well plate reader. SKOV-3, OVCAR-3, OVCAR-8, IGROV-1, A-2780 cell proliferation, when treated with the corresponding compound, were determined using MTT (3-(4,5-dimethylthiazol-2-yl)-2,5-diphenyl-2H-tetrazolium bromide) (Sigma-Aldrich, St. Louis, MO, USA). MTT in Phosphate Buffer Saline (PBS) (5 mg/ml) was added to cells (110 µL/well in 24-well plates, total volume of 1110 µL/well). After 1 hour of incubation, the medium was aspirated, and formazan violet crystals were dissolved in dimethyl sulfoxide (DMSO) (500 µL/well). Absorbance was measured at 570 nm in a plate reader (Ultra Evolution, Tecan, Männedorf, Suiza). To determine cell viability, cells in exponential growth phase were seeded (100 µL/well in 96-well plates and 1000 µL/well in 24-well plates) with appropriate cell line concentration (1.5·10^4 cells/mL for MCF7 and HeLa, 3·10^4 cells/mL for HT-29, and 1·10^4 cells/mL for SKOV-3, OVCAR-3, OVCAR-8, IGROV-1, and A-2780) in complete RPMI 1640 or DMEM medium at 37°C and 5% CO2 atmosphere. After 24 h incubation, to allow cells to attach to the plates, all compounds were added at 1 µM concentration and the effect on the proliferation was evaluated 72 h post-treatment. Compounds showing antiproliferative effects at tested concentration were selected for IC50 calculation (50% inhibitory concentration with respect to the untreated controls) from 10^−5 to 10^−10 M concentration. Non-linear curves fitting the experimental data were carried out for each compound. […]
(In general: Tetrazolium dyes change colour on reduction, which living cells bring about.)

For test [2], the system named is MCF7 (breast adenocarcinoma). Put plainly: Antiproliferative activity against MCF7 (XTT colorimetric method). Type of test: cell-based. Conditions: Homo sapiens, 72 h treatment. As to the method: as §1, §2, §3
Test [3] deals with HT-29 (colon adenocarcinoma). As to the kind of experiment: Antiproliferative activity against CA-4-resistant HT-29 with or without verapamil (sensitivity to MDR pumps, XTT). The test is classed as cell-based, human. Conditions: for IC50: Homo sapiens, read-out: Antiproliferative Activity IC50 HT-29.
Source text: Detecting changes in drug potency when inhibiting MDR-mediated efflux reflect that these transporters reduce the intracellular drug concentration. HT-29 has been reported to express moderate levels of MDR1, accounting for a resistant phenotype. A comparison of the antiproliferative IC50 values of each MDS in the presence or absence of verapamil provides an estimate of the susceptibility of each compound to efflux pumps.
as §2
MCF7, HeLa, and HT-29 cell proliferation, when treated with the corresponding compounds, were determined using the XTT (sodium 3’-[1(phenylaminocarbonyl)-3,4-tetrazolium]-bis(4-methoxy-6-nitro)-benzenesulfonic acid hydrate) cell proliferation kit (Roche Molecular Biochemicals, Mannheim, Germany). A freshly prepared mixture of XTT labeling reagent with 0.02% (v/v) PMS (N-methyl-dibenzopyrazine methyl sulfate) electron coupling reagent was added to cells (50 µL/well in 96-well plates, total volume of 160 µL/well). Cells were incubated under standard culture conditions for 4 h (MCF7 and HeLa) or 6 h (HT-29). The absorbance of the formazan product generated was measured at 450 nm using a multi-well plate reader. SKOV-3, OVCAR-3, OVCAR-8, IGROV-1, A-2780 cell proliferation, when treated with the corresponding compound, were determined using MTT (3-(4,5-dimethylthiazol-2-yl)-2,5-diphenyl-2H-tetrazolium bromide) (Sigma-Aldrich, St. Louis, MO, USA). MTT in Phosphate Buffer Saline (PBS) (5 mg/ml) was added to cells (110 µL/well in 24-well plates, total volume of 1110 µL/well). After 1 hour of incubation, the medium was aspirated, and formazan violet crystals were dissolved in dimethyl sulfoxide (DMSO) (500 µL/well). Absorbance was measured at 570 nm in a plate reader (Ultra Evolution, Tecan, Männedorf, Suiza). To determine cell viability, cells in exponential growth phase were seeded (100 µL/well in 96-well plates and 1000 µL/well in 24-well plates) with appropriate cell line concentration (1.5·10^4 cells/mL for MCF7 and HeLa, 3·10^4 cells/mL for HT-29, and 1·10^4 cells/mL for SKOV-3, OVCAR-3, OVCAR-8, IGROV-1, and A-2780) in complete RPMI 1640 or DMEM medium at 37°C and 5% CO2 atmosphere. After 24 h incubation, to allow cells to attach to the plates, all compounds were added at 1 µM concentration and the effect on the proliferation was evaluated 72 h post-treatment. […] Non-linear curves fitting the experimental data were carried out for each compound. Compounds were dissolved in DMSO and the final solvent concentrations never exceeded 0.5% (v/v). The control wells included […] with 0.5% (v/v) DMSO and the positive control. 10 µM verapamil was included as a control for the HT-29 cell line.

Where [4] appears, read: HT-29, 72 h, XTT, without verapamil.

Where two headings read alike, the source gives them in different places. Where only a bound is given, the exact number is not on record here.

`COc1ccc(S(=O)(=O)N(Cc2ccccc2)c2cc(OC)c(OC)c(OC)c2)cc1` [Compound 9]: the 50% inhibitory concentration (IC50) was 750 nM in test [1], 830 nM in test [2] and > 1000 nM in test [3] (setting [4]).
On to `COc1ccc(S(=O)(=O)Nc2cc(OC)c(OC)c(OC)c2NC(=O)CNC(=O)OC(C)(C)C)cc1` [Compound 21], for which the half-inhibitory concentration (IC50) in test [1], in test [2] and in test [3] (setting [4]) was > 1000 nM throughout.
On to `COc1ccc(S(=O)(=O)N(c2cc(OC)c(OC)c(OC)c2)S(=O)(=O)c2ccc(OC)cc2)cc1` [Compound 1b], for which the half-inhibitory concentration (IC50) in test [1], in test [2] and in test [3] (setting [4]) was > 1000 nM in each case.
Take `CCOC(=O)CNc1cc(S(=O)(=O)N(CC(=O)OCC)c2cc(OC)c(OC)c(OC)c2)ccc1OC` [Compound 47]: the IC50 in test [1], in test [2] and in test [3] (setting [4]) was > 1000 nM throughout.
Consider `COc1ccc(S(=O)(=O)N(C)c2cc(OC)c(OC)c(OC)c2N(C)C)cc1` [Compound 19], for which the IC50 in test [1], in test [2] and in test [3] (setting [4]) was > 1000 nM in each case.
`COc1cc(N(C)S(=O)(=O)c2ccc(N(C)C)cc2)cc(OC)c1OC` [Compound 29a]: the figures for the concentration for half-maximal inhibition (IC50) in test [1], in test [2] and in test [3] (setting [4]) were 63 nM, 30 nM and 103 nM, respectively.
The matching figures for `COc1ccc(S(=O)(=O)N(C(=O)OCc2ccccc2)c2cc(OC)c(OC)c(OC)c2)cc1` [Compound 10]: > 1000 nM, > 1000 nM and > 1000 nM.
For `COc1ccc(S(=O)(=O)Nc2cc(OC)c(OC)c(OC)c2)cc1N` [Compound 41] the same measures were 260 nM, 96 nM and 277 nM.
Take `COc1ccc(S(=O)(=O)N(C)c2cc(OC)c(OC)c(OC)c2)cc1N(C)C` [Compound 48b]: the IC50 is > 1000 nM in test [1]; > 1000 nM in test [2]; > 1000 nM in test [3] (HT-29, 72 h).
On to `COc1cc(NS(=O)(=O)c2ccc(N)cc2)cc(OC)c1OC` [Compound 26], for which the IC50 in test [1], in test [2] and in test [3] (setting [4]) was > 1000 nM throughout.
With `COc1ccc(S(=O)(=O)Nc2cc(OC)c(OC)c(OC)c2)cc1[N+](=O)[O-]` [Compound 40], the half-maximal inhibitory concentration (IC50) in test [1], in test [2] and in test [3] (setting [4]) was > 1000 nM throughout.
Turning to `COc1cc(N(Cc2ccccc2)S(=O)(=O)c2ccc(N(C)C)cc2)cc(OC)c1OC` [Compound 35a], the IC50 came to 330 nM in test [1], 100 nM in test [2] and 165 nM in test [3] (setting [4]).
Take `COc1cc(NS(=O)(=O)c2ccc([N+](=O)[O-])cc2)cc(OC)c1OC` [Compound 25]: the half-inhibitory concentration (IC50) in test [1], in test [2] and in test [3] (setting [4]) was > 1000 nM in each case.
Turning to `CCOC(=O)CN(c1cc(OC)c(OC)c(OC)c1)S(=O)(=O)c1ccc(OC)cc1` [Compound 7], the IC50 was 217 nM in test [1], 335 nM in test [2] and 237 nM in test [3] (setting [4]).
`COc1ccc(S(=O)(=O)n2cnc3c(OC)c(OC)c(OC)cc32)cc1` [Compound 24]: the IC50 in test [1], in test [2] and in test [3] (setting [4]) was > 1000 nM in each case.
Take `COc1cc(N(CC#N)S(=O)(=O)c2ccc(N(C)C)cc2)cc(OC)c1OC` [Compound 32]: the half-maximal inhibitory concentration (IC50) in test [1] was 55 nM; in test [2], 120 nM; in test [3] (setting [4]), 123 nM.
The matching figures for `COc1cc(NS(=O)(=O)c2ccc(NC=O)cc2)cc(OC)c1OC` [Compound 36]: > 1000 nM, > 1000 nM and > 1000 nM.
The matching figures for `COc1ccc(S(=O)(=O)N(CC(=O)O)c2cc(OC)c(OC)c(OC)c2)cc1` [Compound 8]: > 1000 nM, > 1000 nM and > 1000 nM.
Take `CCN(c1cc(OC)c(OC)c(OC)c1)S(=O)(=O)c1ccc(OC)c(N)c1` [Compound 43]: the figures for the concentration for half-maximal inhibition (IC50) in test [1], in test [2] and in test [3] (setting [4]) were 38 nM, 14 nM and 63 nM, respectively.
On to `COc1ccc(S(=O)(=O)N(C)c2cc(OC)c(OC)c(OC)c2)cc1N` [Compound 42], for which the results for the IC50 in test [1], in test [2] and in test [3] (setting [4]) were 23 nM, 26 nM and 81 nM, respectively. In addition, the “Difference between pairs of HT-29 IC50 values in the presence or absence of verapamil” value in test [3] (10 µM verapamil, up to two-fold change counted as not significant) is “no significant differences”.
For `COc1cc(NS(=O)(=O)c2ccc(N(C)C)cc2)cc(OC)c1OC` [Compound 28], the IC50 is 230 nM in test [1], 173 nM in test [2] and 887 nM in test [3] (setting [4]).
For `COc1ccc(S(=O)(=O)N(CC#N)c2cc(OC)c(OC)c(OC)c2)cc1N` [Compound 44] the same measures were 60 nM, 8 nM and 61 nM.
The matching figures for `COc1ccc(S(=O)(=O)Nc2cc(OC)c(OC)c(OC)c2Br)cc1` [Compound 20]: > 1000 nM, > 1000 nM and > 1000 nM.
`COc1ccc(/C=C\c2cc(OC)c(OC)c(OC)c2)cc1O` [Combretastatin A-4, reference compound]: the figures for the half-inhibitory concentration (IC50) in test [1], in test [2] and in test [3] (setting [4]) were 2 nM, 1 nM and 305 nM, respectively.
With `COc1cc(N(C(C)=O)S(=O)(=O)c2ccc(N(C)C)cc2)cc(OC)c1OC` [Compound 31], the IC50 in test [1] was found to be 183 nM; in test [2], 135 nM; in test [3] (setting [4]) it was 140 nM.

Usually IC50 stands for the concentration needed to halve the response being measured.

These data come from PMC7918738, “Microtubule Destabilizing Sulfonamides as an Alternative to Taxane-Based Chemotherapy” (International Journal of Molecular Sciences, 2021).
